These results are taken from patent US20260317314A1, “NITROGEN-CONTAINING HETEROCYCLIC COMPOUND AND USE THEREOF” (JIANGSU DEYUAN PHARMACEUTICAL CO.,LTD., priority 2023, published 2026).

One data set deals with T1, human CYP11B1 (Homo sapiens, UniProt P15538).
T1 construct: expressed in transfected cells; host or cells: human renal leiomyoma G402 cell line (monoclonal cells overexpressing human CYP11B1)
T1 sequence (P15538 25-503): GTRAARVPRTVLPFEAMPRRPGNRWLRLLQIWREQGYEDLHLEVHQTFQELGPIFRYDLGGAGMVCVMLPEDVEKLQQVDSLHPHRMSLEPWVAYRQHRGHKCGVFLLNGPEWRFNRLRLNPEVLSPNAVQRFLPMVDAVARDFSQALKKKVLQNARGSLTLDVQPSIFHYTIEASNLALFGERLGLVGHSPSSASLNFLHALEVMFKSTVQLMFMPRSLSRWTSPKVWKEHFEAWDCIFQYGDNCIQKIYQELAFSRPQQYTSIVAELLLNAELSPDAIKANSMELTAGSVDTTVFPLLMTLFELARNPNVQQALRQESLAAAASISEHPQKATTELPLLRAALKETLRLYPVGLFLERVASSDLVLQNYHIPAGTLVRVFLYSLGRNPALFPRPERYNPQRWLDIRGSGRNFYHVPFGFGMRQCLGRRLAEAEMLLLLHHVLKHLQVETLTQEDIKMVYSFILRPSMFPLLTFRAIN
The data set is described as follows: In vitro activity assay of monoclonal cells overexpressing human CYP11B1. To be noted: G402 cells overexpressing human CYP11B1; substrate 11-deoxycortisol 1 μM; 16 hours. The data set is classed as cell-based. As for the experimental part:
The human renal leiomyoma G402 cell line overexpressing human CYP11B1 was selected to serve as a compound selectivity screening system. Details are as follows: • 1) The cells, reagents, and instrument information were consistent with Experimental Example 1 (activity of monoclonal cells overexpressing human CYP11B2). • 2) Compound details: The test compound was prepared as a […] working concentration using DMSO. • 3) Experimental procedure
Day 1: Cells were digested, and human renal leiomyoma G402 cells overexpressing CYP11B1 were resuspended to 1×10^5 cells/mL, with […] seeded into a 96-well plate.
Day 2: The medium was replaced with DMEM/F12 containing 2.5% charcoal-stripped fetal bovine serum.
After one hour, the substrate was added: 30 mM 11-deoxycortisol was diluted 1500-fold with culture medium, and 5 μL was dispensed per well to achieve a final concentration of 1 μM, followed by incubation for 16 hours.
Day 3: The cell supernatant was collected and added to 200 μL of a methanol solution containing internal standards (internal standards: 35 ng/mL ketoprofen or 7.5 ng/mL carbamazepine or 5 ng/mL diphenhydramine or 10 ng/mL tolbutamide). […] The mixture was centrifuged (4000 g, 4° C., 15 min), and the supernatant was analyzed by ESI-LCMS/MS. • 4) Data analysis: […]
The IC50 of the test compound was determined by fitting to a nonlinear regression equation using XLfit 5.5.0.

Data set [1] is described as follows: Plasma protein binding rate test, cynomolgus monkey (equilibrium dialysis). The note with it: 37° C., read-out: Plasma protein binding rate (%) in cynomolgus monkeys (converted). In kind it is in vitro ADME. An excerpt:
The sample was thoroughly mixed.
A general note: In equilibrium dialysis only unbound substance equilibrates across the membrane.

In a further data set the target is T2, CYP1A2 (Homo sapiens, UniProt P05177).
T2 construct: Mixed human liver microsomes (HLM) were purchased from Corning Inc; tissue Corning Inc; host or cells: mixed human liver microsomes (HLM)
T2 sequence (P05177 1-516): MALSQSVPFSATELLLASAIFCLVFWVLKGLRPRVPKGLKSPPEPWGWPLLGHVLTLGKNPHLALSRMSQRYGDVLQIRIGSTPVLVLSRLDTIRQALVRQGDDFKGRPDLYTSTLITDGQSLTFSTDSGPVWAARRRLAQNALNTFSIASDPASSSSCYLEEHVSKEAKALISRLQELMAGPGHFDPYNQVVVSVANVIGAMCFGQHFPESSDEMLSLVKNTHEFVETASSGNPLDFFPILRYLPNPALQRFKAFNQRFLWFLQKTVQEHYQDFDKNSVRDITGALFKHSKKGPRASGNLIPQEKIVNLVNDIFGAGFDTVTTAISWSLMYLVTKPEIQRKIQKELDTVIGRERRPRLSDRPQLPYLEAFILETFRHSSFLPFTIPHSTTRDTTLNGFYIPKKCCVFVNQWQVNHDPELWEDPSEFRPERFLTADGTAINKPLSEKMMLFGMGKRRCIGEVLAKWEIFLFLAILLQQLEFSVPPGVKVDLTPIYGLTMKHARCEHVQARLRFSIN
The data set is described as follows: Human liver microsome CYP inhibition assay, CYP1A2. To be noted: role: inhibitor; human liver microsomes, probe substrate; read-out: CYP1A2 half maximal inhibitory concentration IC50. The data set is classed as in vitro ADME. As to the method:
(§1) Experimental objective: To evaluate the inhibitory activity of the test substance on human liver microsomal cytochrome P450 isoenzymes (CYP1A2, CYP2C9, CYP2C19, CYP2D6, CYP3A4) using a 5-in-1 probe substrate for CYP isoenzymes.
(§2) Mixed human liver microsomes (HLM) were purchased from Corning Inc. (Steuben, New York, USA) and stored at temperatures below −70° C. prior to use.
(§3) The working solution of the test substance, which had been diluted to a series of concentrations, was added to an incubation system containing human liver microsomes, probe substrates, and auxiliary factors of the circulatory system. A control containing solvent but no test substance served as an enzyme activity control (100%). The concentration of metabolites produced from probe substrates in the samples was determined using Liquid Chromatography-Tandem Mass Spectrometry (LC-MS/MS) method. Non-linear regression analysis of the average percentage activity of the test substance against its concentration was conducted using SigmaPlot (V.11). The IC50 values were calculated using a three-parameter or four-parameter inverse log equation.
(Liver microsomes are vesicles of endoplasmic reticulum, rich in cytochrome P450 enzymes.)

The next data set deals with T3, CYP2C19 (Homo sapiens, UniProt P33261).
T3 construct: Mixed human liver microsomes (HLM) were purchased from Corning Inc; tissue Corning Inc; host or cells: mixed human liver microsomes (HLM)
The data set is described as follows: Human liver microsome CYP inhibition assay, CYP2C19. In kind it is in vitro ADME. To be noted: role: inhibitor; human liver microsomes, probe substrate; read-out: CYP2C19 half maximal inhibitory concentration IC50. As to the method:
as §1, §2, §3

The next data set addresses T4, CYP3A4 (Homo sapiens, UniProt P08684).
T4 construct: Mixed human liver microsomes (HLM) were purchased from Corning Inc; tissue Corning Inc; host or cells: mixed human liver microsomes (HLM)
The data set is described as follows: Human liver microsome CYP inhibition assay, CYP3A4. In kind it is in vitro ADME. The note with it: role: inhibitor; human liver microsomes, probe substrate; read-out: CYP3A4 half maximal inhibitory concentration IC50. As to the method: as §1, §2, §3

T3 sequence (P33261 whole entry): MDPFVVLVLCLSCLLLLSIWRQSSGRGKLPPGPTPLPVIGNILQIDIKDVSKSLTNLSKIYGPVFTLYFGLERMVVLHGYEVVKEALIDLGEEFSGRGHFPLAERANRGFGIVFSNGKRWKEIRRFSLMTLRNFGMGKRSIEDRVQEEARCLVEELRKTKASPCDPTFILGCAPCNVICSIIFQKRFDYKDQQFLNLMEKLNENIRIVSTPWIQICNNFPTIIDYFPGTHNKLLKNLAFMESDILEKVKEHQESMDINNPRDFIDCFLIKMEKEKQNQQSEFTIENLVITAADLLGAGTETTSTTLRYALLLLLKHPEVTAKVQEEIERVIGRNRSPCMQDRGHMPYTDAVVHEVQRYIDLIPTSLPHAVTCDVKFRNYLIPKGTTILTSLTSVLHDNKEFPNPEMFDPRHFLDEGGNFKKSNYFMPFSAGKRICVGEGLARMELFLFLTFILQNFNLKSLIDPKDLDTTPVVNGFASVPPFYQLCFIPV
T4 sequence (P08684 whole entry): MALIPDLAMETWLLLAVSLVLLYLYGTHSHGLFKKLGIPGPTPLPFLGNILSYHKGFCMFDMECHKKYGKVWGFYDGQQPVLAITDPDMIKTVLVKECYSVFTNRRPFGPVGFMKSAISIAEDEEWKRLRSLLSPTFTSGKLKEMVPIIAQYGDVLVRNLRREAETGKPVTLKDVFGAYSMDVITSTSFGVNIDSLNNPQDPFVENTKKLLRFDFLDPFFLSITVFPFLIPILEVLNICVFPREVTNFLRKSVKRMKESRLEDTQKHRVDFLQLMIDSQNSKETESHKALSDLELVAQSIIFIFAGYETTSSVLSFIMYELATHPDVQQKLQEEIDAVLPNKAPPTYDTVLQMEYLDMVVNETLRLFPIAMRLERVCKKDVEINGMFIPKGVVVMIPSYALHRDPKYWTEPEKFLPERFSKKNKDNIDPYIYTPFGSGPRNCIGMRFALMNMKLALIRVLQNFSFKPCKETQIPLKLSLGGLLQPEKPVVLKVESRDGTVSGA

Regarding `CCC(=O)N[C@H]1CCOc2c(-c3ccc4c(c3)CCC(=O)N4C)cncc21` (single isomer, unassigned) [Compound 037], the IC50 at human CYP11B1 is 3.47 µM; on CYP1A2 it was greater than 50 µM; on CYP2C19 it was greater than 50 µM; on CYP3A4, greater than 50 µM. The fraction unbound at 4 h in data set [1] was 0.451.
